Measurements taken from US20100152434A1, “Protein Kinase-binding Nucleosides and Associated Methods” (priority 2007, published 2010).
Where two headings read alike, the source gives them in different places.

Tests used:
UO-31 [1] = tested on: UO-31
A549/ATCC [2] = tested on: A549/ATCC
UO-31 [3] = test: cells; details: Homo sapiens, UO-31, 48 h
NCI-H322M [4] = details: NCI-H322M
NCI-H322M [5] = test: cells; details: Homo sapiens, NCI-H322M, 48 h
U251 = test: cells; details: Homo sapiens, U-251, 48 h
HOP-62 = test: cells; details: Homo sapiens, HOP-62, 48 h
HCC-2998 = details: HCC-2998
LOX IMVI = test: cells; details: Homo sapiens, 48 h
SNB-19 = test: cells; details: Homo sapiens, SNB-19, 48 h
OVCAR-3 [6] = test: cells; details: Homo sapiens, OVCAR-3, 48 h
UACC-257 = test: cells; details: Homo sapiens, UACC-257, 48 h
A549/ATCC [7] = test: cells; details: Homo sapiens, A549, 48 h
SF-539 = test: cells; details: Homo sapiens, SF-539, 48 h
HOP-92 = test: cells; details: Homo sapiens, HOP-92, 48 h
MDA-MB-435 = details: MDA-MB-435
MDA-MB-231/ATCC = test: cells; details: Homo sapiens, MDA-MB-231, 48 h
OVCAR-3 [8] = tested on: OVCAR-3
[9] = Log10 Concentration −4.0, Molar
[10] = Log10 Concentration −5.0, Molar
[11] = Log10 Concentration −6.0, Molar
[12] = Log10 Concentration −7.0, Molar
[13] = Log10 Concentration −8.0, Molar

**Q.** Which results are given for CCOC(=O)C[C@@H]1C(O[Si](C)(C)C(C)(C)C)[C@H](n2cnc3c(NC(=O)Nc4ccccc4)ncnc32)O[C@@H]1CNC(=O)NC (stereo partly drawn) [Compound 10]?
**A.** TGI (SF-295; 48 h): >1.00E−4 Molar; Percent Growth (SF-295; [9]): 24%; Percent Growth (SF-295; [10]): 38%; Percent Growth (SF-295; [11]): 88%; Percent Growth (SF-295; [12]): 91%; Percent Growth (SF-295; [13]): 91%; TGI (UO-31 [1]; 48 h): 2.95E−5 Molar; Percent Growth (UO-31 [1]; [9]): −69%; Percent Growth (UO-31 [1]; [10]): 61%; Percent Growth (UO-31 [1]; [11]): 82%; Percent Growth (UO-31 [1]; [12]): 87%; Percent Growth (UO-31 [1]; [13]): 87%; TGI (A549/ATCC [2]; 48 h): 1.92E−5 Molar; Percent Growth (A549/ATCC [2]; [9]): −58%; Percent Growth (A549/ATCC [2]; [10]): 23%; Percent Growth (A549/ATCC [2]; [11]): 94%; Percent Growth (A549/ATCC [2]; [12]): 103%; Percent Growth (A549/ATCC [2]; [13]): 102%; GI50 (UO-31 [3]): 12.1 µM; CC50 (UO-31 [3]; read-out: LC50): 71.7 µM; TGI (NCI-H226; 48 h): >1.00E−4 Molar; Percent Growth (NCI-H226; [9]): 55%; Percent Growth (NCI-H226; [10]): 71%; Percent Growth (NCI-H226; [11]): 102%; Percent Growth (NCI-H226; [12]): 105%; Percent Growth (NCI-H226; [13]): 101%; TGI (NCI-H322M [4]; 48 h): >1.00E−4 Molar; Percent Growth (NCI-H322M [4]; [9]): 72%; Percent Growth (NCI-H322M [4]; [10]): 89%; Percent Growth (NCI-H322M [4]; [11]): 95%; Percent Growth (NCI-H322M [4]; [12]): 90%; Percent Growth (NCI-H322M [4]; [13]): 105%; GI50 (NCI-H322M [5]): > 100 µM; CC50 (NCI-H322M [5]; read-out: LC50): > 100 µM; TGI (COLO 205; 48 h): >1.00E−4 Molar; Percent Growth (COLO 205; [9]): 3%; Percent Growth (COLO 205; [10]): 20%; Percent Growth (COLO 205; [11]): 93%; Percent Growth (COLO 205; [12]): 97%; Percent Growth (COLO 205; [13]): 102%; GI50 (U251): 4.69 µM; CC50 (U251; read-out: LC50): 76 µM; GI50 (HOP-62): 8.96 µM; CC50 (HOP-62; read-out: LC50): 73.1 µM; TGI (HCC-2998; 48 h): >1.00E−4 Molar; Percent Growth (HCC-2998; [9]): 62%; Percent Growth (HCC-2998; [10]): 69%; Percent Growth (HCC-2998; [11]): 93%; Percent Growth (HCC-2998; [12]): 96%; Percent Growth (HCC-2998; [13]): 101%; GI50 (LOX IMVI): 5.46 µM; CC50 (LOX IMVI; read-out: LC50): > 100 µM; TGI (NCI-H23; 48 h): >1.00E−4 Molar; Percent Growth (NCI-H23; [9]): 36%; Percent Growth (NCI-H23; [10]): 65%; Percent Growth (NCI-H23; [11]): 100%; Percent Growth (NCI-H23; [12]): 100%; Percent Growth (NCI-H23; [13]): 101%; TGI (HT29; 48 h): >1.00E−4 Molar; Percent Growth (HT29; [9]): 3%; Percent Growth (HT29; [10]): 17%; Percent Growth (HT29; [11]): 104%; Percent Growth (HT29; [12]): 105%; Percent Growth (HT29; [13]): 104%; GI50 (SNB-19): 29 µM; CC50 (SNB-19; read-out: LC50): > 100 µM; GI50 (OVCAR-3 [6]): 4.59 µM; CC50 (OVCAR-3 [6]; read-out: LC50): 91.3 µM; GI50 (UACC-257): 5.68 µM; CC50 (UACC-257; read-out: LC50): > 100 µM; GI50 (A549/ATCC [7]): 4.18 µM; CC50 (A549/ATCC [7]; read-out: LC50): 79.1 µM; GI50 (SF-539): 5.19 µM; CC50 (SF-539; read-out: LC50): > 100 µM; TGI (RPMI-8226; 48 h): 4.57E−6 Molar; Percent Growth (RPMI-8226; [9]): −57%; Percent Growth (RPMI-8226; [10]): −27%; Percent Growth (RPMI-8226; [11]): 53%; Percent Growth (RPMI-8226; [12]): 75%; Percent Growth (RPMI-8226; [13]): 77%; GI50 (HOP-92): < 0.01 µM; CC50 (HOP-92; read-out: LC50): 41.2 µM; TGI (HCT-116; 48 h): 1.61E−5 Molar; Percent Growth (HCT-116; [9]): −88%; Percent Growth (HCT-116; [10]): 23%; Percent Growth (HCT-116; [11]): 78%; Percent Growth (HCT-116; [12]): 113%; Percent Growth (HCT-116; [13]): 93%; TGI (MDA-MB-435; 48 h): >1.00E−4 Molar; Percent Growth (MDA-MB-435; [9]): 8%; Percent Growth (MDA-MB-435; [10]): 40%; Percent Growth (MDA-MB-435; [11]): 89%; Percent Growth (MDA-MB-435; [12]): 92%; Percent Growth (MDA-MB-435; [13]): 95%; TGI (SNB-75; 48 h): >1.00E−4 Molar; Percent Growth (SNB-75; [9]): 22%; Percent Growth (SNB-75; [10]): 32%; Percent Growth (SNB-75; [11]): 85%; Percent Growth (SNB-75; [12]): 90%; Percent Growth (SNB-75; [13]): 92%; GI50 (MDA-MB-231/ATCC): 3.96 µM; CC50 (MDA-MB-231/ATCC; read-out: LC50): > 100 µM; TGI (OVCAR-3 [8]; 48 h): 1.72E−5 Molar; Percent Growth (OVCAR-3 [8]; [9]): −53%; Percent Growth (OVCAR-3 [8]; [10]): 16%; Percent Growth (OVCAR-3 [8]; [11]): 116%; Percent Growth (OVCAR-3 [8]; [12]): 115%; Percent Growth (OVCAR-3 [8]; [13]): 114%
